System: hyaluronidase
Test: Hyaluronic acid zymography of explant tissue capsules
Type: biochemical, rats
Details: developing buffer containing 1 M neomycin; HA gels
Protocol: Hyaluronic acid zymography studies were performed to study the inhibitory effect of neomycin on hyaluronidase. Tissue capsules from 3 weeks explanted treated aortic cusp samples were homogenized and used for gel zymography. Hyaluronic acid (HA) gels were made by incorporating 170 μg/ml of HA in 10% polyacrylamide gels. The tissue extracts were run at 90 Volts for 150 minutes. Protein molecular weight standards (10-150 kDa) were used to identify the molecular weights. Gels were incubated in the developing buffer (two for each sample type) and gels were also incubated in developing buffer containing 1 M neomycin. FIG. 8a and FIG. 8B show similar band intensities for active hyaluronidases in all groups. Thus, presence of more GAGs in Group 1 (Neomycin+EDC+GLUT) was not due to lower enzyme activity in this group as compared to other groups.

NCC1OC(OC2C(CO)OC(OC3C(O)C(N)CC(N)C3OC3OC(CN)C(O)C(O)C3N)C2O)C(N)C(O)C1O (stereo not shown) [neomycin trisulfate]
effect on hyaluronidase activity (zymography band density): inhibited enzyme activity

Source: patent publication US8142805B1, “Implantable devices including fixed tissues” (Clemson University Research Foundation, priority 2006, dated 2012)
